Measurements published in paper PMC3022373 (Journal of medicinal chemistry, 2010).

Target: T1, hiCE (Homo sapiens, UniProt O00748)
T1 sequence (O00748 27-559): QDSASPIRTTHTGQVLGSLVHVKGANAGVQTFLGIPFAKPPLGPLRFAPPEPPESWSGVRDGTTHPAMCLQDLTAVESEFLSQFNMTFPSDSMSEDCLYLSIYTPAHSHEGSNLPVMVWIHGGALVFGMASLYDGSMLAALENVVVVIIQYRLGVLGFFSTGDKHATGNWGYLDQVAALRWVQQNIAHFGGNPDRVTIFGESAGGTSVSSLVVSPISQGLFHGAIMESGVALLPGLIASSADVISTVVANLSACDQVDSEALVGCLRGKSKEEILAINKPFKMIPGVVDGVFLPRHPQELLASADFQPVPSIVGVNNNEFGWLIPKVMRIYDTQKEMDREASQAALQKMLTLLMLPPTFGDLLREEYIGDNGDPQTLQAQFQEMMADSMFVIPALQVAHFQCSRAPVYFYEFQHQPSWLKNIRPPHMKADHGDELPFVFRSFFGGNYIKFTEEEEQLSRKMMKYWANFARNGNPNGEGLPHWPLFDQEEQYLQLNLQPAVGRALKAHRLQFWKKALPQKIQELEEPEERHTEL
Format: biochemical

Structure (SMILES) | selectivity in favor of hiCE inhibition versus hCE1 [fold]
O=C(C(=O)c1ccccn1)c1cccc(NC(=O)c2ccc(Cl)cc2Cl)c1 [15d] | ≥ 100
O=C(Nc1cccc(C(=O)C(=O)c2ccccn2)c1)c1ccc(C(F)(F)F)cc1 [15f] | ≥ 100
